What was measured:
[1] = Enzymatic stability in plasma, HPLC; assay type: in vitro ADME; conditions: plasma specimen, 37° C., in the dark; read-out: Plasma T½ (converted)
Method: For the stability study, the solutions of pro-drug were prepared by dissolving an aliquot of Ketogal in a phosphate buffer at pH 7.4, or else in a solution of HCl 0.1 N (pH 1), as regards chemical stability, or else in a plasma specimen, for enzymatic stability. The solutions were kept in the dark, at a temperature of 37° C., for 24 hours. After each hour an aliquot of specimen was taken. In the case of plasma, said aliquot was previously extracted with acetonitrile (1:2), “vortexed” and centrifuged at 3000 r.p.m. for 10 min. The supernatant was taken and used for analysis at HPLC with diode detector. The half-lives for chemical stability and enzymatic stability were calculated by quantizing, in time, the percentage of pro-drug that remained in solution. For the chromatographic separations, a 1090L HPLC (Hewlett-Packard, Palo Alto, USA) was used, coupled to a diode detector HP 1040A. A Phenomenex Luna C18 (250×4.6 mm, 5 μm) column was used. The wavelength used was 313 nm. The mobile phase was constituted by acetonitrile and an aqueous solution of phosphoric acid […] (pH 3) in the ratio of 68:32. The flow was 1 mL/min, with an injection volume of 20 μl. All the reagents and the solvents used were of analytical degree. The distilled and deionized water was purified by means of a Milli Q system (Millipore). […] The straight line of calibration for quantification of the compounds was constructed using standard solutions with concentrations of between 0.1 and 100 μg/ml. […]
For the study of the stability, the solutions of pro-drug were prepared by dissolving an aliquot of Flugal in a phosphate buffer at pH 7.4, as regards chemical stability, or else in a plasma specimen, for enzymatic stability. […] The half-lives for the chemical stability and enzymatic stability were calculated by quantizing, in time, the percentage of pro-drug that remained in solution. […] For the quantitative determination reading was made at 250 nm. […] The straight line of calibration for the quantification of the compounds was constructed using standard solutions with concentrations of between 0.1 and 100 μg/ml. […]

[2] = Chemical stability of the pro-drug (phosphate buffer pH 7.4; HCl 0.1 N pH 1), HPLC; assay type: physicochemical; conditions: in the dark; for pH 7.4 T½: phosphate buffer at pH 7.4, 37° C.; for pH 1 T½: solution of HCl 0.1 N (pH 1), 37° C.
Method: For the stability study, the solutions of pro-drug were prepared by dissolving an aliquot of Ketogal in a phosphate buffer at pH 7.4, or else in a solution of HCl 0.1 N (pH 1), as regards chemical stability, or else in a plasma specimen, for enzymatic stability. The solutions were kept in the dark, at a temperature of 37° C., for 24 hours. After each hour an aliquot of specimen was taken. In the case of plasma, said aliquot was previously extracted with acetonitrile (1:2), “vortexed” and centrifuged at 3000 r.p.m. for 10 min. The supernatant was taken and used for analysis at HPLC with diode detector. The half-lives for chemical stability and enzymatic stability were calculated by quantizing, in time, the percentage of pro-drug that remained in solution. For the chromatographic separations, a 1090L HPLC (Hewlett-Packard, Palo Alto, USA) was used, coupled to a diode detector HP 1040A. A Phenomenex Luna C18 (250×4.6 mm, 5 μm) column was used. The wavelength used was 313 nm. The mobile phase was constituted by acetonitrile and an aqueous solution of phosphoric acid […] (pH 3) in the ratio of 68:32. The flow was 1 mL/min, with an injection volume of 20 μl. All the reagents and the solvents used were of analytical degree. The distilled and deionized water was purified by means of a Milli Q system (Millipore). The retention times of the compounds were: ketorolac: 6.7 min; Ketogal: 3.8 min. As internal standard tolmetin was used (9.3 min). The straight line of calibration for quantification of the compounds was constructed using standard solutions with concentrations of between 0.1 and 100 μg/ml. The linearity was obtained with a coefficient of regression (R^2) of approximately 0.998.
For the study of the stability, the solutions of pro-drug were prepared by dissolving an aliquot of Flugal in a phosphate buffer at pH 7.4, as regards chemical stability, or else in a plasma specimen, for enzymatic stability. The solutions were kept in the dark, at a temperature of 37° C., for 24 hours. After each hour an aliquot of specimen was taken. In the case of the plasma said amount was previously extracted with acetonitrile (1:2), “vortexed”, and centrifuged at 3000 r.p.m. for 10 min. The supernatant was taken and used for analysis at HPLC with diode detector. The half-lives for the chemical stability and enzymatic stability were calculated by quantizing, in time, the percentage of pro-drug that remained in solution. A 1090L HPLC (Hewlett-Packard, Palo Alto, USA) coupled to a diode detector HP 1040A was used for the chromatographic separations. The column used was a Supelcosil LC-18, 250×4.6 mm, particle size […]. The volume injected was […] and the flow of 1 mL/min. The mobile phase was constituted by a mixture of aqueous CH3CN/H3PO4 1 mM (pH 3) [32:68]. For the quantitative determination reading was made at 250 nm. The retention times of the various compounds involved in the analysis were: for Flugal 6 min and for flurbiprofen 11 min. All the reagents and the solvents used were of analytical degree. The distilled and deionized water was purified by means of a Milli Q system (Millipore). The straight line of calibration for the quantification of the compounds was constructed using standard solutions with concentrations of between 0.1 and 100 μg/ml. Linearity was obtained with a coefficient of regression (R^2) of approximately 0.998. From the results of said analysis (illustrated in Table 3) it emerges that the pro-drug Flugal has a good chemical stability and a good susceptibility to enzymatic hydrolysis.
Chemical stability was assessed also at pH 1.0 in a solution of HCl 0.1N as described.
For the stability study, the solutions of pro-drug were prepared by dissolving an aliquot of Okigal in a phosphate buffer at pH 7.4, or else in a solution of HCl 0.1 N (pH 1), as regards chemical stability, or else in a plasma specimen, for enzymatic stability. The solutions were kept in the dark, at a temperature of 37° C., for 24 hours. […]

mice = test: Ulcerogenicity studies, flurbiprofen and flugal (NSAID-induced gastric damage in mice); assay type: in vivo; conditions: oral, after 4 h; for gastric lesion score / n. of ulcers: flurbiprofen 10 mg/kg, flugal 16.6 mg/kg (table); for n. of ulcers: fasted mice
Method: NSAID-induced gastric damage in mice was evaluated following the procedure described by Chan et al. (1995). […] After 4 h of treatment, mice were euthanized and the stomach was excised along its greater curvature and rinsed with normal saline. The mucosa was then examined by means of a magnifying glass for the presence of irritation or frank hemorrhagic lesions (ulcers). Irritation was assigned a score of 1, and ulcerations were scored according to their length (a score of 5 for lesions with a length between 1 and 3 mm; a score of 10 for lesions greater than 3 mm). The sum of total scores was used for comparison.

[3] = test system: mouse carrageenan paw oedema; test: Carrageenan oedema test; assay type: in vivo, mice; conditions: pro-drug 16.3 mg/kg oral, 1 h before carrageenan
[4] = test system: mouse carrageenan paw oedema; test: Carrageenan oedema test; assay type: in vivo, mice; conditions: for Carrageenan-induced oedema, first phase (0-6 h): pro-drug 16.3 mg/kg oral; for Oedema formation after parent drug: 10 mg/kg oral
Method: Anti-inflammatory activity was tested by means of the carrageenan oedema test. The mice were divided into groups of six. The initial volumes of the leg of all the animals were measured using a plethysmometer. The oedema is induced in the leg by means of sub-plantar injection of 50 μl of saline solution containing 1% of carrageenan. The volume of the leg was measured at different time intervals. Said experimental model consists of two phases: a first, acute, phase lasting 6 hours and a second, chronic, phase, up to 72 hours.
The anti-inflammatory activity of the physical mixture of ketorolac and galactose was evaluated with the carrageenan induced mice hind paw edema assay, as described for ketogal. […]
The carrageenan induced mice hind paw oedema assay described by D'Agostino et al. (2007) was used to evaluate the acute anti-inflammatory activity of the conjugate. Mice were divided into control and test groups of six animals each. Initial paw volumes of all animals were measured using a plethysmometer apparatus (Ugo Basile, Milan, Italy) before treatment. Paw oedema was induced by a subplantar injection of 50 μL of saline containing 1% λ-carrageenan into the right hind paw. […] free acid and ketogal were orally administrated 1 h before carrageenan challenge. Paw volume was measured at different time intervals by plethysmometer. The increase in paw volume was evaluated as the difference between the paw volume measured at each time point and the basal paw volume measured immediately before carrageenan injection.

PGE synthase = test: Western blot, stomach, PGE synthase protein expression; assay type: in vivo, mice; conditions: ketorolac 10 mg/Kg, ketogal 16.3 mg/Kg, oral, 3, 5 and 7 days
From the text: (§1) Animals were sacrificed and then liver, stomach and kidney were collected in glass tubes and analysed histologically and biochemically.

male Swiss mice [5] = test: Chronic and sub-chronic experiments: liver, kidney and stomach examination; assay type: in vivo; conditions: ketorolac 10 mg/Kg, ketogal 16.3 mg/Kg, oral
Method: as §1
Liver samples were fixed in 10% buffered formalin and embedded in paraffin, sliced, and stained with hematoxylin & eosin (H&E) for assessment of liver pathology. […] To confirm histological data, western blot analysis for TNF-alpha, IL-6 and malonyldialdehyde assay were then performed in liver lysates.

PPAR-gamma = test: Western blot, stomach, PPAR-gamma protein expression; assay type: in vivo, mice; conditions: ketorolac 10 mg/Kg, ketogal 16.3 mg/Kg, oral, 3, 5 and 7 days
From the text: as §1

[6] = test system: writhing induced by acetic acid; test: Writhing test induced by acetic acid; assay type: in vivo, mice; conditions: 60 min prior to acetic acid
Method: The analgesic activity was studied using the “writhing test” using acetic acid and using magnesium sulphate. To the mice there was administered by intraperitoneal route 1 mL of solution at 1% of acetic acid, and the number of writhing events was evaluated for 20 min, after 5 min from administration of the solution of acetic acid. Writhing is defined as a contraction of the abdominal muscles accompanied by elongation of the body and of the rear legs. Ketorolac and Ketogal were administered by oral route 60 min prior to administration of the solution of acetic acid. The analgesic effect is expressed in number of writhing events as compared to the control.

COX-1 = test: Western blot, stomach, COX-1 protein expression; assay type: in vivo, mice; conditions: ketorolac 10 mg/Kg, ketogal 16.3 mg/Kg, oral, 3, 5 and 7 days; versus control stomachs
From the text: as §1

[7] = test system: writhing induced by magnesium sulphate; test: Writhing induced by magnesium sulphate (visceral pain); assay type: in vivo, mouse; conditions: ketorolac 0.01 to 10 mg/kg, Ketogal in equimolar dose; 1 hour before magnesium sulphate 120 mg/kg
Method: In order to determine whether ketorolac and Ketogal are able to inhibit visceral pain, the effects of these compounds on “writhing” induced by magnesium sulphate were tested. Magnesium sulphate induces a reversible response when injected by intraperitoneal route in the mouse. The administration of 120 mg/kg of magnesium sulphate induces an average of 6±0.9 episodes of “writhing” in the mouse (n=6).

male Swiss mice [8] = test: Ulcerogenicity studies, ketorolac and Ketogal (gastric lesions); assay type: in vivo; conditions: oral, ketorolac 10.0 mg/kg, Ketogal 16.3 mg/kg, after 4 hours
Method: The gastric lesions were evaluated in male Swiss mice. To the fasted animals (16-18 h) were administered, by oral route, ketorolac (10 mg/kg), Ketogal (16.3 mg/kg), or the vehicle. After 4 hours, the mice were sacrificed and the stomach removed, cut along the major curvature, washed with physiological solution, and the mucous was examined for evaluation of the presence of petechias and/or gastric lesions. A “score” of 1 was assigned to the petechias, and a “score” based on the diameter (a “score” of 5 for lesions of a diameter of less than 1 mm; a “score” of 10 for lesions with a diameter of more than 1 mm) was, instead, assigned to the lesions.

Compound | half-life [1] [h] | pH 7.4 T½ [2] [hours] | pH 1 T½ [2] [hours] | gastric lesion score (mice) | n. of ulcers (mice) | Carrageenan-induced oedema, second phase (24-96 h) [3] | Carrageenan-induced oedema, first phase (0-6 h) ([4]; 1 h before carrageenan) | Oedema formation after parent drug ([4]; 1 h before carrageenan) | also measured
CC(C(=O)OCC1O[C@H](O)C(O)[C@@H](O)[C@H]1O)c1ccc(-c2ccccc2)c(F)c1 (stereo partly drawn) [Flugal, flurbiprofen-D-galactos-6′-yl ester] | 1 | >8 | >8 | 0 | 1 ± 1 | significant anti-inflammatory effect | did not modify carrageenan-induced oedema | – | Ulcerogenic activity (in words) (mice; flugal 16.3 mg/kg): caused only irritation without ulceration
CC(C(=O)O)c1cccc(C(=O)c2ccccc2)c1 (centres unmarked) [Ketoprofen, ketoprofen, reference compound] | – | – | – | – | – | – | – | significantly inhibited oedema formation until 48 h | –
CC(C(=O)OCC1O[C@H](O)C(O)C(O)[C@H]1O)c1cccc(C(=O)c2ccccc2)c1 (stereo partly drawn) [Okigal, Ketoprofen-D-galactos-6′-yl ester] | 4 | >8 | >8 | – | – | significant anti-inflammatory effect | slightly modify carrageenan-induced oedema | – | –
CC(C(=O)O)c1ccc(-c2ccccc2)c(F)c1 (centres unmarked) [flurbiprofen, reference compound] | – | – | – | 2 | 3 ± 1.5 | – | – | significantly inhibited oedema formation until 48 h | –
O=C[C@H](O)[C@@H](O)[C@@H](O)[C@H](O)CO [galactose, reference compound] | – | – | – | – | – | – | – | – | Anti-inflammatory activity of galactose alone ([4]; galactose 16.3 mg/kg oral, 1 h before carrageenan): no anti-inflammatory activity
O=C(c1ccccc1)c1ccc2n1CC[C@@H]2C(=O)O [ketorolac, reference compound] | – | – | – | – | – | – | – | – | Gastric PGE synthase protein expression (PGE synthase): significantly reduced; Kidney histology (male Swiss mice [5]; after 3, 5 and 7 days): normal kidney histology; Stomach samples, ulcerogenicity (male Swiss mice [5]; for 3 days): high ulcerogenicity degree; Gastric PPAR-gamma protein expression (PPAR-gamma): significantly reduced; Formation of oedema, first phase, lowest dose ([4]; ketorolac 0.1 mg/kg oral, first phase): had no effect; Dosages with significant analgesic effect (p<0.01) ([6]; ketorolac by oral route): significant at the dosages of 1 and 10 mg/kg; Analgesic effect (number of writhing events compared to control) ([6]; oral, ketorolac 0.01-10 mg/kg, Ketogal 0.0163-16.3 mg/kg): dose-dependent analgesic effect; Gastric COX-1 protein expression (COX-1): significantly inhibited; Inhibition of writhing induced by magnesium sulphate [7]: able to inhibit this response in a dose-dependent way; Degree of ulcerogenicity (male Swiss mice [8]; score 1 petechias, 5 or 10 lesions): 10; Number of ulcers (male Swiss mice [8]; fasted mice): 4 ± 0.4
